In test [1] the target is T1, purified lapine LBP (Oryctolagus cuniculus, UniProt P17454).
T1 construct: the mature secreted protein present in impure form in acute phase sera; from tissue; host or cells: acute phase rabbit serum (silver nitrate induced), Bio-Rex 70 and Mono-Q columns
In words: Microtiter binding assay: inhibition of LBP binding to Re595 LPS-coated plates. The arrangement: species or system rabbit. To be noted: for IC50: read-out: ED50 (the source's name) (converted); for Inhibition of LBP binding to LPS plate, in words: qualitative analysis of Table IV. An excerpt: (§1) The binding of purified lapine LBP to LPS immobilized on plastic microtiter plates has also been examined. The presence of LBP bound to LPS was detected with goat anti-rabbit LBP and peroxidase conjugated rabbit anti-goat IgG.
The data from these studies are shown in Table IV, below, where the numerical results are the concentrations necessary to reduce the binding of 1 microgram (ug)/ml LBP to the plate by 50 percent; i.e., ED50. It is noted that in some instances, the structure of the inhibitor is either not fully defined or the inhibitor is heterogeneous, thereby preventing a calculation of a molar concentration for ED50.
Microtiter plates were coated with LPS by incubating 100 ul/well of 30 ug/ml Re595 LPS in 0.1M Na2 Co3, 20 mM EDTA, pH 9.6 for 3 hours at 37°. The LPS solution was flicked out, the plates rinsed thoroughly under running water and air dried overnight. The binding properties of the dried, LPS-coated plates remain unchanged for up to eight weeks. Excess binding sites were then blocked with 200 ul/well of 10 mg/ml BSA in 50 mM HEPES, 0.15M NaCl, pH 7.4 (HS buffer) for 30 minutes at 37° temperature with agitation, after which the BSA solution was flicked out.
LBP samples, APRS, or NRS were added in a total volume of 100 ul/well diluted in 1 mg/ml BSA in HS buffer. Binding of LBP was allowed to occur for 3 hours at 37°. The plate was then rinsed 3 times with 200 ul/well of 1 mg/ml BSA in HS buffer with agitation over a 10 minute interval.
Goat anti-LBP serum, 100 ul/well, diluted 2000 times in 1 mg/ml BSA in HS buffer was then incubated in the wells for 2 hours at 37°. The anti-LBP antiserum was then rinsed out as above and replaced for 1 hour at room temperature with 100 ul/well of peroxidase conjugated rabbit anti-goat IgG diluted 2500 times in 1 mg/ml BSA.
(§2) Finally, 100 ul/well o-phenylenediamine solution (4 mM o-phenylenediamine, 2.3 mM H2 O2, 50 mM citric acid, 133 mM Na2 HPO4, pH 5.0) were added and the resulting composition maintained until sufficient color had developed (5-15 minutes). The reaction was stopped by addition of 100 ul/well 5M H2 SO4 and the absorbance at 490 nm of each well was quantitated in a microtiter plate reader. Mean absorbances and standard errors of the means were calculated from 4-8 replicates of each well.
Inhibition of LBP binding to the plate was studied by premixing the compound under study at the desired concentration with 1 ug/ml purified LBP for 10 minutes at 37° before adding the mixture to the microtiter plate.

The target of test [2] is T1, purified lapine LBP. The experiment in a line: Binding of purified lapine LBP to LPS types and lipid A partial structures (microtiter plate). Conditions: detected with goat anti-rabbit LBP and peroxidase conjugated rabbit anti-goat IgG. The method, then: as §1
(§3) Binding affinities of LBP for LPS are near 10^9 m^-1.
Microtiter plates were coated with LPS by incubating 100 ul/well of 30 ug/ml Re595 LPS in 0.1M Na2 Co3, 20 mM EDTA, pH 9.6 for 3 hours at 37°. The LPS solution was flicked out, the plates rinsed thoroughly under running water and air dried overnight. The binding properties of the dried, LPS-coated plates remain unchanged for up to eight weeks. Excess binding sites were then blocked with 200 ul/well of 10 mg/ml BSA in 50 mM HEPES, 0.15M NaCl, pH 7.4 (HS buffer) for 30 minutes at 37° temperature with agitation, after which the BSA solution was flicked out. […]
as §2

Test [3] is described as follows: NRS reconstitution assay for LBP activity (C1.3 formation, retardation of LPS binding to HDL). The format is biochemical, rabbit. Conditions: added to NRS. As for the experimental part:
Two examples of the NRS reconstitution assay for lipopolysaccharide binding protein (LBP) activity in the lapine (rabbit) system are shown in FIG. 5. In control studies, no systematic dependence on the assay results were observed when smaller total assay volumes; i.e., 0.5 or 0.25 ml rather than the standrard 1 ml, were used.
The basic method used during development of the purification procedure for LBP was a reconstitution assay in which fractions of acute phase serum were assayed for their ability to reconstitute "acute phase behavior" in NRS. The screening assay used was to mix a sample of the material to be tested with 1.0 ml of NRS at 37 degrees C. for 30 minutes. LPS and EDTA were then added to the concentrations given above, and the LPS-HDL binding reaction was allowed to proceed for ten minutes at 37 degrees before addition of CsCl and centrifugation. The 10 minute reaction time was chosen as a compromise between the times required for LPS to bind to HDL in NRS and APRS. […]
To quantitate LBP activity in purified fractions of APRS, the reconstitution assay just described was performed with a series of different amounts of the sample being assayed up to a maximum of 200 ul per ml NRS. After centrifugation and quantitation of the LPS in C1.3, a plot of percent LPS as C1.3 versus sample volume was made. […]

Another test has as its system Gram-negative bacteria. Conditions: similar conditions for LBP and BPI; cited from earlier work.
Test [4] is described as follows: Binding affinity of LBP for LPS. Conditions: association constant.
Text: as §1, §3

Where [5] appears, read: concentration necessary to reduce the binding of 1 ug/ml LBP to the Re595 LPS-coated plate by 50 percent.
Where [6] appears, read: concentration necessary to reduce the binding of 1 ug/ml LBP to the plate by 50 percent.

Read-outs that look alike come from different tables or passages of the source.

Take “0-[2-amino-2-deoxy-N^2 -(3-hydroxytetradecanoyl)-beta-D-glucopyranosyl]-(1-6)-amino-2-deoxy-N^2 -(3-hydroxytetradecanoyl)-alpha-D-glucopyranose 1,4'-bisphosphate [DADG-BSA]”: the ED50 on purified lapine LBP [1] (setting [5]) stood at 540 ng/mL. The IC50 at purified lapine LBP [1] (setting [6]) was 0.57 µM.
On to `Nc1ncnc2c1ncn2[C@@H]1O[C@H](COP(=O)(O)O)[C@@H](O)[C@H]1O` [AMP, adenosine-5'-monophosphate], for which the figures for the IC50 on purified lapine LBP [1] (setting [5]) and on purified lapine LBP [1] (setting [6]) were over 2880 µM and over 2800 µM, respectively. Besides, the “Inhibition of LBP binding to LPS plate, in words” value (“Inhibition of LBP binding” below) on purified lapine LBP [1] is recorded as “ineffective”.
In the case of `CCCCCCCCCCCCCC(=O)OCC(COP(=O)(O)O)OC(=O)CCCCCCCCCCCCC` (stereo not drawn) [Dimyristoyl phosphatidic acid, dimyristoyl phosphatidic acid], the IC50 on purified lapine LBP [1] (setting [5]) is 4.22 µM; at purified lapine LBP [1] (setting [6]), 3.9 µM.
Consider `CCCCCCCCCCCCCC(=O)O[C@H](CCCCCCCCCCC)CC(=O)O[C@@H]1[C@@H](NC(=O)C[C@@H](CCCCCCCCCCC)OC(=O)CCCCCCCCCCC)[C@H](OC[C@H]2O[C@H](OP(=O)(O)O)[C@H](NC(=O)C[C@H](O)CCCCCCCCCCC)[C@@H](OC(=O)C[C@H](O)CCCCCCCCCCC)[C@@H]2O)O[C@H](CO)[C@H]1OP(=O)(O)O` [J5 LA (synthetic)], for which the IC50 was 0.0222 µM at purified lapine LBP [1] (setting [5]) and 0.02 µM at purified lapine LBP [1] (setting [6]).
As to `CCCCCCCCCCC[C@@H](O)CC(=O)N[C@H]1[C@@H](OP(=O)(O)O)O[C@H](CO)[C@@H](O)[C@@H]1OC(=O)C[C@H](O)CCCCCCCCCCC` [Lipid x], on purified lapine LBP [2], the “Binding of LBP to the substance” value was “only poorly”. Also, the IC50 on purified lapine LBP [1] (setting [5]) is 3.93 µM; at purified lapine LBP [1] (setting [6]), 3.9 µM.
In the case of `CCCCCCCCCCC[C@@H](O)CC(=O)N[C@H]1[C@H](OC[C@H]2O[C@H](OP(=O)(O)O)[C@H](NC(=O)C[C@H](O)CCCCCCCCCCC)[C@@H](OC(=O)C[C@H](O)CCCCCCCCCCC)[C@@H]2O)O[C@H](CO)[C@@H](OP(=O)(O)O)[C@@H]1OC(=O)C[C@H](O)CCCCCCCCCCC` [precursor IVA], the “Binding of LBP to the substance” value at purified lapine LBP [2] is “bind”.
On purified lapine LBP [1] (setting [5]), Dextran sulfate gave an ED50 of 73 ng/mL. In addition, on purified lapine LBP [1], the “Inhibition of LBP binding” value is “fairly good ligands”.
Take Heparin: the ED50 at purified lapine LBP [1] (setting [5]) was 21,000 ng/ml. Besides, the “Inhibition of LBP binding” value on purified lapine LBP [1] was “inhibitory only at high concentrations”.
In the case of Lipoteichoic acid, the ED50 on purified lapine LBP [1] (setting [5]) was 480 ng/mL. Further, on purified lapine LBP [1], the “Inhibition of LBP binding” value is listed as “fairly good ligands”.

B1: rabbit CRP: rabbit C-reactive protein (protein, UniProt P02742 21-225, looked up)
C-reactive protein: AGMHKKAFVFPKESDNSYVSLNAQLKKPLKAFTVCLYFYTDLSMTRGYSIFSYATRRQFNEILLFWSKDIGYSFSVGGDEIIFKVSDIPVDPTHLCASWESSTGIAELWVDGKPMVRKSLKKGYILGPEASIILGQDQDSFGGSFEKQQSLVGDIGNVNMWDYALSPEEINTIYAGGTFSPNVLDWRELTYQVRGEVHVKPQLWP
B1: the “Retardation of LPS binding to HDL / reconstitution of acute phase behavior in normal rabbit serum” value in test [3] is given as “does not reconstitute the observed phenomena”.

B2: BPI: bactericidal/permeability increasing protein, a product of neutrophils (protein, UniProt P17213 32-487, looked up)
Bactericidal …: VNPGVVVRISQKGLDYASQQGTAALQKELKRIKIPDYSDSFKIKHLGKGHYSFYSMDIREFQLPSSQISMVPNVGLKFSISNANIKISGKWKAQKRFLKMSGNFDLSIEGMSISADLKLGSNPTSGKPTITCSSCSSHINSVHVHISKSKVGWLIQLFHKKIESALRNKMNSQVCEKVTNSVSSELQPYFQTLPVMTKIDSVAGINYGLVAPPATTAETLDVQMKGEFYSENHHNPPPFAPPVMEFPAAHDRMVYLGLSDYFFNTAGLVYQEAGVLKMTLRDDMIPKESKFRLTTKFFGTFLPEVAKKFPNMKIQIHVSASTPPHLSVQPTGLTFYPAVDVQAFAVLPNSSLASLFLIGMHTTGSMEVSAESNRLVGELKLDRLLLELKHSNIGPFPVELLQDIMNYIVPILVLPRVNEKLQKGFPLPTPARVQLYNVVLQPHQNFLLFGADVVYK
In the case of B2, the Bactericidal effect result in the test with Gram-negative bacteria is “kills”.

B3: LBP: acute phase glycoprotein of about 60 kD that binds LPS and retards its binding to HDL (protein, UniProt P17454 27-482, looked up)
Lipopolysaccharide-binding …: TNPGLITRITDKGLEYAAREGLLALQRKLLEVTLPDSDGDFRIKHFGRAQYKFYSLKIPRFELLRGTLRPLPGQGLSLDISDAYIHVRGSWKVRKAFLRLKNSFDLYVKGLTISVHLVLGSESSGRPTVTTSSCSSDIQNVELDIEGDLEELLNLLQSQIDARLREVLESKICRQIEEAVTAHLQPYLQTLPVTTQIDSFAGIDYSLMEAPRATAGMLDVMFKGEIFPLDHRSPVDFLAPAMNLPEAHSRMVYFSISDYVFNTASLAYHKSGYWNFSITDAMVPADLNIRRTTKSFRPFVPLLANLYPNMNLELQGTVNSEQLVNLSTENLLEEPEMDIEALVVLPSSAREPVFRLGVATNVSATLTLNTRKITGFLKPGRLQVELKESKVGGFNVELLEALLNYYILNNLYPKVNEKLAHRFPLPLLRHIQLYDLLLQTHENFLLVGANIQYRRV
Turning to B3, the Bactericidal effect result with Gram-negative bacteria is “no bactericidal effects”. In test [3], the “Retardation of LPS binding to HDL / reconstitution of acute phase behavior in normal rabbit serum” value is recorded as “retards binding”. Besides, the “Binding affinities of LBP for LPS” value in test [4] is on record as ~10^9 m^-1.

The values above are taken from patent US5871937A, “Acute phase protein modulating endotoxic activity of lipopolysaccharides, assay methods and polypeptides” (priority 1997, dated 1999).
